Measurements as given in patent publication US20230340406A1, “METHODS AND COMPOSITIONS FOR PRODUCING STEM CELL DERIVED SPINAL GABA INHIBITORY NEURONS FOR USE IN TREATMENT OF SPINAL CORD INJURY” (BrainXell, Inc., priority 2020, published 2023).

Test system: SCI model in rats
Assay: Spasticity: amplitude of the Hoffman reflex (H-reflex)
Assay type: in vivo, rat
Conditions: for H % following CNO: 12 weeks
From the text: Taking advantage of the DREADD-expressing neural cells we transplanted, we asked if the therapeutic effects depend on the activity of the grafted cells.

C[N+]1([O-])CCN(C2=Nc3cc(Cl)ccc3Nc3ccccc32)CC1 [CNO]
H % following CNO injection (cell-transplanted rats (DREADD-expressing cells), 3 mg/kg, 6 weeks, 2 Hz): 47%±4.12% | decrease of H % following CNO injection (cell-transplanted rats, 3 mg/kg, 6 weeks, 1 Hz): not at 1 Hz | H % following CNO injection (cell-transplanted rats, 3 mg/kg, 6 weeks, 5 Hz): 28.21%±5.63% | H % following CNO (cell-transplanted rats, 1 Hz): 26.05%±5.64% | H % following CNO (cell-transplanted rats, 2 Hz): 17.57%±4.98% | H % following CNO (cell-transplanted rats, 5 Hz): 9.09%±1.52% | change of H % in response to CNO treatment (control animals: sham operation, SCI, SCI injected with medium): did not show any changes
